In patent publication US10227323B2, “Glucosylceramide synthase inhibitors for the treatment of diseases” (BIOMARIN PHARMACEUTICAL INC., priority 2013, dated 2019):

Target: T1, GCS (Canis lupus familiaris, UniProt A0A8I3MXG6)
T1 sequence (A0A8I3MXG6 1-394): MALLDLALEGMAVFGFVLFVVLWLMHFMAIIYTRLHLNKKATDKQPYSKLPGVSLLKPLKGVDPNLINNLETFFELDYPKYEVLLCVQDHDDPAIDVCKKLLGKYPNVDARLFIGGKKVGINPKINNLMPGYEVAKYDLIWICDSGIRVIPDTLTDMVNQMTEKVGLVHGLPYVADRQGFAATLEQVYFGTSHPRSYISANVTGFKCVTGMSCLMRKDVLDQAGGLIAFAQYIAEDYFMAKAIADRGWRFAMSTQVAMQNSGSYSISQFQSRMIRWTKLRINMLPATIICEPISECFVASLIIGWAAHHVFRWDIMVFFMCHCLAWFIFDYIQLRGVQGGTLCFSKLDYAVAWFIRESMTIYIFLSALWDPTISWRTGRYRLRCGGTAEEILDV
Experiment: Assay 1: GCS Enzymatic Assay (MDCK cell lysate, C6-NBD-Ceramide, LC/MS)
Format: biochemical, canine
Settings: Table 3, MDCK cell lysate; for IC50: read-out: IC50 (nM) generated from Assay 1
Outline: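 LC/MS/MS measurement of glucosylceramide and NBD-ceramide after a 1 h, 37 °C reaction with 100 μM UDP-glucose and 10 μM C6-NBD-ceramide gave IC50s or percent inhibition.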

Structure (SMILES)	IC50	% inhibition generated from Assay 1 (values marked *)
O=C(N[C@H](CN1CCCC1)[C@H](O)c1cc(F)c2c(c1)OCCO2)C(F)(F)c1ccc(-c2ccc(Cl)s2)cc1 [Example 398, 2-(4-(5-chlorothiophen-2-yl)phenyl)-2,2-difluoro-N-((1R,2R)-1-(8-fluoro-2,3-dihydrobenzo[b][1,4]dioxin-6-yl)-1-hydroxy-3-(pyrrolidin-1-yl)propan-2-yl)acetamide]	< 50 nM	–
O=C(N[C@H](CN1CCCC1)[C@H](O)c1ccc(OC2CC2)cc1)C(=O)c1cc2ccc(Cl)cc2s1 [Example 399, 2-(6-chlorobenzo[b]thiophen-2-yl)-N-((1R,2R)-1-(4-cyclopropoxyphenyl)-1-hydroxy-3-(pyrrolidin-1-yl)propan-2-yl)-2-oxoacetamide]	< 50 nM	–
O=C(N[C@H](CN1CCCC1)[C@H](O)c1ccc(OC2CC2)c(Cl)c1)C(=O)c1ccc(-n2cccn2)cc1 [Example 400, 2-(4-(1H-pyrazol-1-yl)phenyl)-N-((1R,2R)-1-(3-chloro-4-cyclopropoxyphenyl)-1-hydroxy-3-(pyrrolidin-1-yl)propan-2-yl)-2-oxoacetamide]	< 50 nM	–
C#Cc1ccc(C(=O)C(=O)N[C@H](CN2CCCC2)[C@H](O)c2ccc(OC3CC3)cc2)cc1 [Example 401, N-((1R,2R)-1-(4-cyclopropoxyphenyl)-1-hydroxy-3-(pyrrolidin-1-yl)propan-2-yl)-2-(4-ethynylphenyl)-2-oxoacetamide]	50 to 5000 nM	–
O=C(N[C@H](CN1CCCC1)[C@H](O)c1ccc(OC2CC2)cc1)C(F)(F)CCc1ccc2cc(Cl)ccc2c1 [Example 402, 4-(6-chloronaphthalen-2-yl)-N-((1R,2R)-1-(4-cyclopropoxyphenyl)-1-hydroxy-3-(pyrrolidin-1-yl)propan-2-yl)-2,2-difluorobutanamide]	50 to 5000 nM	–
O=C(N[C@H](CN1CCCC1)[C@H](O)c1ccc(OC2CC2)c(Cl)c1)C(=O)c1ccc(-n2nccn2)cc1 [Example 403, 2-(4-(2H-1,2,3-triazol-2-yl)phenyl)-N-((1R,2R)-1-(3-chloro-4-cyclopropoxyphenyl)-1-hydroxy-3-(pyrrolidin-1-yl)propan-2-yl)-2-oxoacetamide]	< 50 nM	–
CN(C(=O)C(=O)c1ccc(-c2ccc(F)cc2)cc1)[C@H](CN1CCCC1)[C@H](O)c1ccc(OC2CC2)c(F)c1 [Example 404, N-((1R,2R)-1-(4-cyclopropoxy-3-fluorophenyl)-1-hydroxy-3-(pyrrolidin-1-yl)propan-2-yl)-2-(4′-fluoro-[1,1′-biphenyl]-4-yl)-N-methyl-2-oxoacetamide]	< 50 nM	–
O=C(N[C@H](CN1CCCC1)[C@H](O)c1ccc(OC(F)F)cc1)C(=O)c1cc2ccc(Cl)cc2s1 [Example 405, 2-(6-chlorobenzo[b]thiophen-2-yl)-N-((1R,2R)-1-(4-(difluoromethoxy)phenyl)-1-hydroxy-3-(pyrrolidin-1-yl)propan-2-yl)-2-oxoacetamide]	50 to 5000 nM	–
O=C(N[C@H](CN1CCCC1)[C@H](O)c1ccc(OC2CC2)c(Cl)c1)/C(CCc1ccc2cc(F)ccc2c1)=N/O [Example 406, (E)-N-((1R,2R)-1-(3-chloro-4-cyclopropoxyphenyl)-1-hydroxy-3-(pyrrolidin-1-yl)propan-2-yl)-4-(6-fluoronaphthalen-2-yl)-2-(hydroxyimino)butanamide]	–	A* (the compound had a % inhibition of a percent inhibition of greater than or equal to about 50%)

Now from value to molecule, other results behind:

IC50	Structure (SMILES)	% inhibition generated from Assay 1 (values marked *)
< 50 nM	O=C(N[C@H](CN1CCCC1)[C@H](O)c1ccc(OC2CC2)cc1)C(F)(F)c1ccc(-c2ccc(F)cc2)cc1 [Example 394, N-((1R,2R)-1-(4-cyclopropoxyphenyl)-1-hydroxy-3-(pyrrolidin-1-yl)propan-2-yl)-2,2-difluoro-2-(4′-fluoro-[1,1′-biphenyl]-4-yl)acetamide]	–
< 50 nM	O=C(N[C@H](CN1CCCC1)[C@H](O)c1ccc(OC2CC2)c(F)c1)C(=O)c1ccc(C2CC2)cc1 [Example 395, N-((1R,2R)-1-(4-cyclopropoxy-3-fluorophenyl)-1-hydroxy-3-(pyrrolidin-1-yl)propan-2-yl)-2-(4-cyclopropylphenyl)-2-oxoacetamide]	–
< 50 nM	O=C(N[C@H](CN1CCCC1)[C@H](O)c1ccc(OC2CC2)c(Cl)c1)C(F)(F)c1ccc(-c2ccc(Cl)s2)cc1 [Example 396, N-((1R,2R)-1-(3-chloro-4-cyclopropoxyphenyl)-1-hydroxy-3-(pyrrolidin-1-yl)propan-2-yl)-2-(4-(5-chlorothiophen-2-yl)phenyl)-2,2-difluoroacetamide]	–
< 50 nM	O=C(N[C@H](CN1CCCC1)[C@H](O)c1ccc(OC2CC2)c(F)c1)C(F)(F)c1ccc(-c2ccc(Cl)s2)cc1 [Example 397, 2-(4-(5-chlorothiophen-2-yl)phenyl)-N-((1R,2R)-1-(4-cyclopropoxy-3-fluorophenyl)-1-hydroxy-3-(pyrrolidin-1-yl)propan-2-yl)-2,2-difluoroacetamide]	–
